# Results taken from PMC7010297, “How the initiating ribosome copes with ppGpp to translate mRNAs” (PLoS Biology, 2020).
# Values joined by “and” are separate entries in the source; they are usually repeats but may differ in a detail not shown here. Equal entries are not always repeated. Where two headings read alike, the source gives them in different places.
# B1: mTufA: TufA mRNA with full-length 5′ UTR, in vitro transcribed, codes for EF-Tu (nucleic acid)
# chain: GGUUCUAUCGCCUUUAAAGAAGGCUUUAAGAAAGCGAAACCAGUUCUGCUUGAGCCGAUCAUGAAGGUUGAAGUAGAAACUCCGGAAGAGAACACCGGUGACGUUAUCGGUGACUUGAGCCGUCGUCGUGGUAUGCUCAAAGGUCAGGAAUCUGAAGUUACUGGCGUUAAGAUCCACGCUGAAGUACCGCUGUCUGAAAUGUUCGGAUACGCAACUCAGCUGCGUUCUCUGACCAAAGGUCGUGCAUCAUACACUAUGGAAUUCCUGAAGUAUGAUGAAGCGCCGAGUAACGUUGCUCAGGCCGUAAUUGAAGCCCGUGGUAAAUAAGCCUAAGGGUUAAUACCAAAGUCCCGUGCUCUCUCCUGAAGGGGAGAGCACUAUAGUAAGGAAUAUAGCCGUGUCUAAAGAAAAAUUUGAACG
# How the values were obtained:
# [1] = biological target: T1, 30S IC (30S-bound IF2, Bpy-tRNAi) (Escherichia coli, UniProt P0A705); experiment: 30S IC formation measured by MST at increasing concentrations of IF2 with guanosine nucleotides; format: binding; settings: Fig 2A
# T1 construct: 6xHis (N); made in house
# Text: (§1) To monitor the interaction of initiator tRNA and 30S ribosomal subunits, we used Microscale Thermophoresis (MST) with a fluorescently labelled initiator tRNA (Bpy-tRNAi) (Fig 1B). MST allows to measure fluorescence in a constrained space. Changes on the readout derive from molecular drifts resulting from small thermal equilibrium perturbations. Upon equilibrium perturbations, the patterns of Bpy-tRNAi migration away from the observation space are related to bound and unbound states (Fig 1B). […] On the contrary, a decrease in thermophoresis indicated the dissociation of Bpy-tRNAi. The relation between fluorescence measured at both equilibriums (Ff to Fi, after and prior to the perturbation, respectively) as a function of ligand concentration allowed to determine dissociation constants of the interaction (Fig 1C).
# (§2) Continuous lines indicate nonlinear regression fittings with a quadratic equation. Three measurements were performed; mean and standard deviation are plotted (S1 Data). (B) as (A) to measure the concentration dependence for each tested guanosine nucleotide at constant IF2 (1 μM). […] Continuous lines show best fits using exponential functions. (D) Formation of 70S IC as measured by Bpy-tRNAi accommodation in the P site of the ribosome; 0.1 μM 30S ICs were formed with Bpy-tRNAi and rapidly mixed with 0.3 μM 50S subunits on a stopped-flow apparatus as described in [14]. Colors are as in (C). Continuous lines show best fits using an exponential function for a single reaction step. Each stopped-flow trace results from the mean of 5 to 7 replicates.
# [2] = biological target: T2, IF2-bound 30S IC (Escherichia coli, UniProt P0A705); experiment: 30S IC formation by MST, guanosine nucleotide titration; format: binding; settings: for Kd: Fig 3F, GTP titration;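 on MST Average: lower thermophoresis signal means Bpy-tRNAi dissociation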;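 on MST Replicates (a.u.): lower thermophoresis signal means Bpy-tRNAi dissociation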
# T2 construct: 6xHis (N); made in house
# Text: as §1, §2
# MST was calculated from the respective fluorescence time dependencies (S3 Fig). […] Symbols as in (B). […] Continuous lines indicate nonlinear regression fittings with quadratic (B and E) or same-site competition (G) functions. Three measurements were performed; mean and standard deviations are plotted (S1 Data).
# [3] = biological target: T3, 70S IC (Escherichia coli, UniProt P0A705); experiment: 70S IC formation by Bpy-tRNAi accommodation, stopped-flow; format: biochemical; parameters: K1, best-fit value: unit not given here; settings: for A0, best-fit value / A1, best-fit value / K1, best-fit value / k2, best-fit value: fit Y=A0+A1*exp(-K1*x)+k2*x; for kfast (s-1) Avg: fluorescence
# T3 construct: 6xHis (N); made in house
# Protocol: as §2
# (A) Scheme of 70S IC formation. […] Time traces were analyzed by nonlinear regression with exponential terms. […] Formation of 70S IC, as measured by Bpy-tRNAi accommodation in the absence (F) or presence of 200 μM ppGpp (G). Time traces were analyzed by nonlinear regression with one exponential term. […] Continuous lines show best fits using an exponential function for a single reaction step. All time traces are mean values of 5 to 10 replicates. Bar graphs show mean and standard errors (error bars) derived from the nonlinear regression fitting (D,E,H,I) (S1 Data).
# To measure 70S pre-IC formation, a SX-20 stopped-flow instrument (Applied Photophysics, Leatherhead, UK) was set up for LS recording with an excitation wavelength of 430 nm. Scattered light was measured at an angle of 90° without a filter. Pseudo first-order conditions were approximated by using ≥3-fold excess of 50S subunits over 30S ICs; 0.2 μM 30S ICs were rapidly mixed in the instrument with 0.6 μM 50S at 25 °C. Bpy-tRNAi accommodation was measured essentially as described elsewhere. Briefly, 0.2 μM 30S ICs were formed using Bpy-tRNAi and rapidly mixed with 0.6 μM 50S at 25 °C. Fluorescence was excited at 470 nm and measured after a 495-nm longpass filter. Individual traces (6–11 traces) were averaged, and the resulting kinetic curve was approximated by single (F = A0 + A1*exp (-kapp1*t)) or double (F = A0 + A1*exp (-kapp1*t) + A2*exp (-kapp2*t)) exponential fit using Graphpad Prism 6.0 software (GraphPad, San Diego, California).
# [4] = Fig 2B (GDP/ppGpp series), nucleotide 0.25 µM
# [5] = Fig 2B (GDP/ppGpp series), nucleotide 0.50 µM
# [6] = Fig 2B (GDP/ppGpp series), nucleotide 1.00 µM
# [7] = Fig 2B (GDP/ppGpp series), nucleotide 2.00 µM
# [8] = Fig 2B (GDP/ppGpp series), nucleotide 4.00 µM
# [9] = Fig 2B (GDP/ppGpp series), nucleotide 8.00 µM
# [10] = Fig 2B (GDP/ppGpp series), nucleotide 16.00 µM
# [11] = Fig 2B (GDP/ppGpp series), nucleotide 31.00 µM
# [12] = Fig 2B (GDP/ppGpp series), nucleotide 62.00 µM
# [13] = Fig 2B (GDP/ppGpp series), nucleotide 125.00 µM
# T1 sequence (P0A705 whole entry, looked up): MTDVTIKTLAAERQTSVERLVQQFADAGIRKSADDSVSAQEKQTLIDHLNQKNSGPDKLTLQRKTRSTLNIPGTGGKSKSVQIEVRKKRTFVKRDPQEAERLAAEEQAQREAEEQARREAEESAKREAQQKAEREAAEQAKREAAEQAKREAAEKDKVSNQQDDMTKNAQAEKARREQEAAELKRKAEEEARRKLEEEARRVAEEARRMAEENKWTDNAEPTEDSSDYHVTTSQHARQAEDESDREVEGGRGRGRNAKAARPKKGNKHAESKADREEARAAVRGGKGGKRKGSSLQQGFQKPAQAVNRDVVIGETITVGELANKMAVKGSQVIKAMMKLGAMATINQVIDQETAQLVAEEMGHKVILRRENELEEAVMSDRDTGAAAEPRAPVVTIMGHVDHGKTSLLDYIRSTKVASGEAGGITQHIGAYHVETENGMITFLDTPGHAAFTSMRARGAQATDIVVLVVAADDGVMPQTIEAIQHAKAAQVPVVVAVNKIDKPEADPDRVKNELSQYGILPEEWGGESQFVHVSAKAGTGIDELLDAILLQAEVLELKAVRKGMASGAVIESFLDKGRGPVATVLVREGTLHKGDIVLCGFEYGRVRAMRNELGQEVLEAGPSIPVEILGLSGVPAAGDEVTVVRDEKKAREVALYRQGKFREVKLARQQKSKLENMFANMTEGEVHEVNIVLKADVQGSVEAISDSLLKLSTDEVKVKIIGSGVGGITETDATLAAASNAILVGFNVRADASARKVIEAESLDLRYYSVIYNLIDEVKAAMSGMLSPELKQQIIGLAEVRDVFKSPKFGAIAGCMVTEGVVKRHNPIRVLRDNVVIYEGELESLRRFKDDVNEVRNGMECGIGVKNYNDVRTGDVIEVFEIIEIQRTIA
# T3 sequence (P0A705 whole entry, looked up): as above
# T2 sequence (P0A705 whole entry, looked up): as above
molecule,measurement,setting,value
"Nc1nc2c(ncn2[C@@H]2O[C@H](COP(=O)(O)OP(=O)(O)O)[C@@H](O)[C@H]2O)c(=O)[nH]1 [GDP, guanosine diphosphate]",MST Average,[1]; IF2 0.16 µM,936.66 a.u.
same,MST Replicates (a.u.),"[1]; IF2 0.16 µM, in the presence of the nucleotide",938.79 a.u. and 935.06 a.u. and 936.14 a.u.
same,MST Average,[1]; IF2 0.31 µM,942.67 a.u.
same,MST Replicates (a.u.),[1]; IF2 0.31 µM,943.24 a.u. and 941.18 a.u. and 943.58 a.u.
same,MST Average,[1]; IF2 0.63 µM,949.91 a.u.
same,MST Replicates (a.u.),[1]; IF2 0.63 µM,951.36 a.u. and 947.80 a.u. and 950.56 a.u.
same,MST Average,[1]; IF2 1.25 µM,961.16 a.u.
same,MST Replicates (a.u.),[1]; IF2 1.25 µM,962.03 a.u. and 959.55 a.u. and 961.91 a.u.
same,MST Average,[1]; IF2 2.50 µM,966.51 a.u.
same,MST Replicates (a.u.),[1]; IF2 2.50 µM,967.31 a.u. and 965.43 a.u. and 966.81 a.u.
same,MST Average,[1]; IF2 5.00 µM,968.29 a.u.
same,MST Replicates (a.u.),[1]; IF2 5.00 µM,968.72 a.u. and 967.06 a.u. and 969.08 a.u.
same,MST Average,"[2]; Fig 2B (GDP/ppGpp series), nucleotide 0.13 µM",933.71 a.u.
same,MST Replicates (a.u.),"[2]; Fig 2B (GDP/ppGpp series), nucleotide 0.13 µM, constant IF2 (1 μM)",931.66 a.u. and 934.22 a.u. and 933.66 a.u. and 935.28 a.u.
same,MST Average,[2]; [4],934.55 a.u.
same,MST Replicates (a.u.),[2]; [4],933.08 a.u. and 934.64 a.u. and 934.32 a.u. and 936.15 a.u.
same,MST Average,[2]; [5],935.70 a.u.
same,MST Replicates (a.u.),[2]; [5],933.41 a.u. and 935.59 a.u. and 935.81 a.u. and 937.99 a.u.
same,MST Average,[2]; [6],937.58 a.u.
same,MST Replicates (a.u.),[2]; [6],936.31 a.u. and 938.31 a.u. and 936.76 a.u. and 938.95 a.u.
same,MST Average,[2]; [7],940.10 a.u.
same,MST Replicates (a.u.),[2]; [7],938.98 a.u. and 940.66 a.u. and 939.47 a.u. and 941.28 a.u.
same,MST Average,[2]; [8],942.84 a.u.
same,MST Replicates (a.u.),[2]; [8],941.71 a.u. and 943.61 a.u. and 942.43 a.u. and 943.60 a.u.
same,MST Average,[2]; [9],945.64 a.u.
same,MST Replicates (a.u.),[2]; [9],944.41 a.u. and 946.59 a.u. and 945.06 a.u. and 946.52 a.u.
same,MST Average,[2]; [10],952.27 a.u.
same,MST Replicates (a.u.),[2]; [10],951.48 a.u. and 953.11 a.u. and 951.45 a.u. and 953.06 a.u.
same,MST Average,[2]; [11],953.23 a.u.
same,MST Replicates (a.u.),[2]; [11],951.79 a.u. and 954.63 a.u. and 951.76 a.u. and 954.74 a.u.
same,MST Average,[2]; [12],952.59 a.u.
same,MST Replicates (a.u.),[2]; [12],952.17 a.u. and 953.16 a.u. and 951.66 a.u. and 953.37 a.u.
same,MST Average,[2]; [13],950.10 a.u.
same,MST Replicates (a.u.),[2]; [13],949.56 a.u. and 950.68 a.u. and 949.29 a.u. and 950.89 a.u.
same,promotion of Bpy-tRNAi binding (thermophoresis) in guanosine nucleotide titration,[2]; constant IF2 (1 μM),failed to promote Bpy-tRNAi binding at any concentration
same,efficiency (amplitude) of 70S IC formation (Bpy-tRNAi accommodation),"[3]; 0.2 mM nucleotide, no GTP",reduced efficiencies
same,"A0, best-fit value",[3]; mInfA,0.98
same,"A1, best-fit value",[3]; mInfA,0.0231
same,"K1, best-fit value",[3]; mInfA,1.28
same,"k2, best-fit value",[3]; mInfA,-0.00069
same,"A0, best-fit value",[3]; mMF1,0.93
same,"A1, best-fit value",[3]; mMF1,0.07
same,"K1, best-fit value",[3]; mMF1,1.57
same,"k2, best-fit value",[3]; mMF1,-0.00092
same,Fluorescence Amplitude Avg,[3]; mRNA mInfA,0.023
same,kfast (s-1) Avg,[3]; mRNA mInfA,1.28 s⁻¹
same,Fluorescence Amplitude Avg,[3]; mRNA mMF1,0.067
same,kfast (s-1) Avg,[3]; mRNA mMF1,1.57 s⁻¹
same,Fluorescence Amplitude Avg,[3]; mRNA mTufA,0.062
same,kfast (s-1) Avg,[3]; mRNA mTufA,2.65 s⁻¹
same,"A0, best-fit value",[3]; mTufA,0.94
same,"A1, best-fit value",[3]; mTufA,0.06
same,"K1, best-fit value",[3]; mTufA,2.65
same,"k2, best-fit value",[3]; mTufA,-0.00072
B1,MST Average,"[2]; GTP 0.49 μM, Fig 6E",1014.52 a.u.
same,MST Replicates,"[2]; GTP 0.49 μM, Fig 6E",1011.10 a.u. and 1014.70 a.u. and 1017.78 a.u.
same,MST Average,"[2]; GTP 1.95 μM, Fig 6E",1035.39 a.u.
same,MST Replicates,"[2]; GTP 1.95 μM, Fig 6E",1032.39 a.u. and 1034.94 a.u. and 1038.85 a.u.
same,MST Average,"[2]; GTP 3.91 μM, Fig 6E",1049.68 a.u.
same,MST Replicates,"[2]; GTP 3.91 μM, Fig 6E",1044.99 a.u. and 1049.25 a.u. and 1054.80 a.u.
same,MST Average,"[2]; GTP 7.81 μM, Fig 6E",1070.36 a.u.
same,MST Replicates,"[2]; GTP 7.81 μM, Fig 6E",1070.17 a.u. and 1070.71 a.u. and 1070.18 a.u.
same,Kd,"[2]; read-out: Kd (μM) of GTP for the 30S IC programmed with the labelled mRNA, Average",0.28 µM
same,Kd,"[2]; read-out: Kd (μM) of GTP for the 30S IC programmed with the labelled mRNA, single replicate",0.3 µM and 0.27 µM
